Like-named read-outs stand apart in the source and are kept apart here.
What was measured:
phosphorylated AKT = assay: Immunoblotting for cellular kinase phosphorylation; format: cell-based, Human; conditions: NCI-H1975 cells, 4 hours, 1 μM concentration
Description: (§2) NSCLC NCI-H1975 cells (harboring EGFR L858R/T790M double mutations) were cultured in RPMI medium, supplemented with 10% fetal bovine serum and 100 U/mL of penicillin/streptomycin. […] Cells were collected after treatment and lysed in RIPA buffer (50 mM Tris, pH 7.4, 150 mM NaCl, 1% NP-40, 0.5% Deoxycholate, 0.1% SDS) supplemented with 10 mM EDTA, 1× Halt protease and phosphatase inhibitors (Thermo Scientific). […] Membranes were incubated with chemiluminescent substrate for 5 min at room temperature (SuperSignal West Femto, Thermo Scientific). The chemiluminescent images were acquired with a C-DiGit Imaging System (LI-COR Biosciences).

phosphorylated ERK = assay: Immunoblotting for cellular kinase phosphorylation; format: cell-based, Human; conditions: NCI-H1975 cells, 4 hours, 1 μM concentration
Description: as §2

phosphorylated EGFR = assay: Immunoblotting for cellular kinase phosphorylation; format: cell-based, Human
phosphorylated STAT3 = assay: Immunoblotting for cellular kinase phosphorylation; format: cell-based, Human; conditions: NCI-H1975 cells, 4 hours, 1 μM concentration
Description: as §2

NCI-H1975 cells = assay: NCI-H1975 lung cancer cell proliferation assay (CellTiter-Glo); format: cell-based, Human; conditions: for IC50: Homo sapiens, NCI-H1975, 72 h; for inhibition of NCI-H1975 cell proliferation (in words): NCI-H1975 cells, 72 hours
Description: Cell proliferation was measured using CellTiter-Glo luciferase-based ATP detection assay (Promega) following the manufactures's protocol. IC50 determinations were performed using GraphPad Prism software (GraphPad, Inc., San Diego, Calif.).

JAK2 = JAK2 (Homo sapiens (Human), UniProt O60674); assay: Enzymatic kinase inhibition assay 1 (Eurofins KinaseProfiler); format: biochemical; conditions: kinase activity remaining as % of DMSO control; 1 μM compound; ATP 10 μM
JAK2, sequence (O60674 whole entry): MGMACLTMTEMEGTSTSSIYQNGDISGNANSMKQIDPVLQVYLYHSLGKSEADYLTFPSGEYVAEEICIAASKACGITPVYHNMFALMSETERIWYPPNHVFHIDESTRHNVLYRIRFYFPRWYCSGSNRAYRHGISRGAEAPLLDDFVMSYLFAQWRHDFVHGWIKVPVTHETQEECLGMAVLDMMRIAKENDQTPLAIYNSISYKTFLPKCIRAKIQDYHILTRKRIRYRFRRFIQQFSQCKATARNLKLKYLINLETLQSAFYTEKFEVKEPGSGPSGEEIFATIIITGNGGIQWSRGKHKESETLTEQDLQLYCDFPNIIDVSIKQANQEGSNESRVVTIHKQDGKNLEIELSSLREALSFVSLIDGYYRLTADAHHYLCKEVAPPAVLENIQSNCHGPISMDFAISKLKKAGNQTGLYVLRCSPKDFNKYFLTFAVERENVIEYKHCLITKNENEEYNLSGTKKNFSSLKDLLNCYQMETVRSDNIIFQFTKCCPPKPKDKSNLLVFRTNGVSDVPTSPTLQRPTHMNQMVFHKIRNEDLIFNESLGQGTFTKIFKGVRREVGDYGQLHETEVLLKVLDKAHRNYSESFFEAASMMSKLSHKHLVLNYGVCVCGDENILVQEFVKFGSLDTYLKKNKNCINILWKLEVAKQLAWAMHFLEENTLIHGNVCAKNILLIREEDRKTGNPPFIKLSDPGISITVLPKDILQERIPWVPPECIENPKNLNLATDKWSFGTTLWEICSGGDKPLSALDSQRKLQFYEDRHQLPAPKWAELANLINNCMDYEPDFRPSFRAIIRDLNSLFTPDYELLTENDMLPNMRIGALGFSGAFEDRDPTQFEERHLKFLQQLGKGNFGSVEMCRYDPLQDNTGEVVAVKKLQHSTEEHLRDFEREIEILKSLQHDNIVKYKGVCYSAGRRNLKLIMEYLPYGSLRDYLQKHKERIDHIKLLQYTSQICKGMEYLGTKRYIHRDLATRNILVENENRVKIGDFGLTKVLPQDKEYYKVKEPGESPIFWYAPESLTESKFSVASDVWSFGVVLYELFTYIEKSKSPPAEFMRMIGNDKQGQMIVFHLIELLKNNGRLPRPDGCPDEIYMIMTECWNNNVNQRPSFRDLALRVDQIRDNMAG
Description: (§1) The enzymatic kinase inhibition against FAK, SRC and JAK2 were evaluated at Eurofins using the Erofins KinaseProfiler™ panel. All compounds were prepared to a working stock of 50× final assay concentration in 100% DMSO. Where appropriate, more concentrated stocks were diluted manually to 50× using 100% DMSO. Compounds supplied as powders were reconstituted to a 10 mM stock in 100% DMSO before further dilution to 50×. The required volume of the 50× stock of test compound was added to the assay well, before a reaction mix containing the enzyme and substrate was added. The reaction was initiated by the addition of ATP at 10 μM concentration. There was no pre-incubation of the compound with the enzyme/substrate mix prior to ATP addition. Data are handled using a custom built in-house analysis software. Results are expressed as kinase activity remaining, as a percentage of the DMSO control. This is calculated using the following formula: […].

SRC = SRC (Homo sapiens (Human), UniProt P12931); assay: as above; format: biochemical; conditions: kinase activity remaining as % of DMSO control; 1 μM compound; ATP 10 μM
SRC, sequence (P12931 whole entry, looked up): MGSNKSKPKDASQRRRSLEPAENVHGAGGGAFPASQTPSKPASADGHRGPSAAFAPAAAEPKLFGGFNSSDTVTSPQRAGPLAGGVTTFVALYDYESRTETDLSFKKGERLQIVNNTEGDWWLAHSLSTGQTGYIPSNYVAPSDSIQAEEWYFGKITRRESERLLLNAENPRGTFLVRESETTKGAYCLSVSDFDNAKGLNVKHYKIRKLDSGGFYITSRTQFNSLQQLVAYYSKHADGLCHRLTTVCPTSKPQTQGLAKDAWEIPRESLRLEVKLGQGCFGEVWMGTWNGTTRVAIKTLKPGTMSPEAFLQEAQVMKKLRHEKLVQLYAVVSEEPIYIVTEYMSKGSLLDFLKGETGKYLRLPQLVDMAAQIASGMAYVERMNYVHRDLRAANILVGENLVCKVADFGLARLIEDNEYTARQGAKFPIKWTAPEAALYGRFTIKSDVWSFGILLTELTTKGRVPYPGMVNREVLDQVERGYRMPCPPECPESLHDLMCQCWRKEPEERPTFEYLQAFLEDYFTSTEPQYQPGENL
Description: as §1

FAK = FAK (Homo sapiens (Human), UniProt Q05397); assay: as above; format: biochemical; conditions: kinase activity remaining as % of DMSO control; 1 μM compound; ATP 10 μM
FAK, sequence (Q05397 whole entry): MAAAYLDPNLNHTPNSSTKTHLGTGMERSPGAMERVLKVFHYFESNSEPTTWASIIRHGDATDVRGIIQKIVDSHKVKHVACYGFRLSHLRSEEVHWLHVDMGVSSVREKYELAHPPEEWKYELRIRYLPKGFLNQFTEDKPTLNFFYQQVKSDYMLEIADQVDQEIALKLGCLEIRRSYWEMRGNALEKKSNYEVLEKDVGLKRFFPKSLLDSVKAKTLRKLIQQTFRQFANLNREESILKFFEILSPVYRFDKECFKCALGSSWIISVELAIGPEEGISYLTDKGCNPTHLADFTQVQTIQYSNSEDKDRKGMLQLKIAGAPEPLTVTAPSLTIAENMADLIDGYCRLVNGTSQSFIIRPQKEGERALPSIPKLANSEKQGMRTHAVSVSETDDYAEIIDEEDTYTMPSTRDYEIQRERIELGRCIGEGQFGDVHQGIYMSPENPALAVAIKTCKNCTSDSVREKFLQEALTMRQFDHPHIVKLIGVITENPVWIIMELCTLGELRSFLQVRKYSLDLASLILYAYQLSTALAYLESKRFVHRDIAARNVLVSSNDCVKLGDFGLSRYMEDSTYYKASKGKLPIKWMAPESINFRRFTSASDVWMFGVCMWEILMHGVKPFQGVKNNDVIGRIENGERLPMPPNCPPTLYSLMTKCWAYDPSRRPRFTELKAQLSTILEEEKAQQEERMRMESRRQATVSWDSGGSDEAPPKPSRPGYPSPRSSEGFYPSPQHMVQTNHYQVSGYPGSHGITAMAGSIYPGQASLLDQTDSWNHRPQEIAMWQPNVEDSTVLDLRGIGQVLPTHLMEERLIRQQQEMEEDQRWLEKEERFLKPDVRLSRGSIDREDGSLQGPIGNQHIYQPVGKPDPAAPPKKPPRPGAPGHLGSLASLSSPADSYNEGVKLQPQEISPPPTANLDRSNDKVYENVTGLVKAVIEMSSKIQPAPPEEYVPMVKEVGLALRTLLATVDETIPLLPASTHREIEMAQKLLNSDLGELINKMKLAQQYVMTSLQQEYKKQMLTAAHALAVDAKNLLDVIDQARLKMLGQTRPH
Description: as §1

phosphorylated paxillin = assay: Immunoblotting for cellular kinase phosphorylation; format: cell-based, Human; conditions: NCI-H1975 cells, 4 hours; for inhibition of phosphorylation of paxillin: 1 μM concentration
Description: as §2

[1] = read-out: anti-proliferation IC50
[2] = read-out: anti-proliferation IC50 of EGFR inhibitor with Compound 1 at 3 μM

Row | % remaining JAK2 at 1 μM testing comp. (JAK2) | % remaining SRC at 1 μM testing comp. (SRC) | % remaining FAK at 1 μM testing comp. (FAK) | SMILES | inhibition of phosphorylation of AKT (phosphorylated AKT) | inhibition of phosphorylation of ERK (phosphorylated ERK) | inhibition of phosphorylation of EGFR (phosphorylated EGFR; NCI-H1975 cells, 4 hours, 1 μM concentration) | inhibition of EGFR phosphorylation (phosphorylated EGFR; NCI-H1975 cells, 4 hours, dose response (FIG. 11)) | inhibition of phosphorylation of STAT3 (phosphorylated STAT3) | IC50 (NCI-H1975 cells; [1]) | inhibition of NCI-H1975 cell proliferation (in words) (NCI-H1975 cells) | inhibition of phosphorylation of paxillin (phosphorylated paxillin) | inhibition of phosphorylation of SRC/FAK substrate paxillin (phosphorylated paxillin; dose response (FIG. 11)) | IC50 (NCI-H1975 cells; [2]) | inhibition of phosphorylation of EGFR (phosphorylated EGFR) | IC50 (NCI-H1975 cells; read-out: anti-proliferation IC50 (partial))
1 | 3% | 2% | −1% | C[C@H]1Nc2ccn3ncc(c3n2)C(=O)NC[C@@H](O)COc2ccc(F)cc21 [Compound 2, (7R,14R)-12-fluoro-7-hydroxy-14-methyl-5,6,7,8,14,15-hexahydro-4H-1,16-ethenopyrazolo[4,3-g][1,5,9,11]benzoxatriazacyclotetradecin-4-one] |  |  |  |  |  |  |  |  |  |  |  | 
2 | 6% | 8% | −2% | O=C1NCCCOc2ccc(F)cc2CCc2ccn3ncc1c3n2 [Compound 3, 12-fluoro-5,6,7,8,14,15-hexahydro-4H-1,16-ethenopyrazolo[4,3-g][1,5,9]benzoxadiazacyclotetradecin-4-one] |  |  |  |  |  |  |  |  |  |  |  | 
3 |  |  |  | C#Cc1cccc(Nc2ncnc3cc(OCCOC)c(OCCOC)cc23)c1 [erlotinib] | minimum inhibition | minimum inhibition |  |  | minimum inhibition | 6240 nM | not sensitive | minimum inhibition |  | 1000 nM |  | 
4 |  |  |  | C=CC(=O)Nc1cc(Nc2nccc(-c3cn(C)c4ccccc34)n2)c(OC)cc1N(C)CCN(C)C [osimertinib] | significant inhibition | significant inhibition |  |  | minimum inhibition |  | […] | minimum inhibition |  | […] | significant inhibition | […]

Row | SMILES | % remaining JAK2 at 1 μM testing comp. (JAK2) | % remaining SRC at 1 μM testing comp. (SRC) | % remaining FAK at 1 μM testing comp. (FAK) | inhibition of phosphorylation of AKT (phosphorylated AKT) | inhibition of phosphorylation of ERK (phosphorylated ERK) | inhibition of phosphorylation of EGFR (phosphorylated EGFR; NCI-H1975 cells, 4 hours, 1 μM concentration) | inhibition of EGFR phosphorylation (phosphorylated EGFR; NCI-H1975 cells, 4 hours, dose response (FIG. 11)) | inhibition of phosphorylation of STAT3 (phosphorylated STAT3) | IC50 (NCI-H1975 cells; [1]) | inhibition of NCI-H1975 cell proliferation (in words) (NCI-H1975 cells) | inhibition of phosphorylation of paxillin (phosphorylated paxillin) | inhibition of phosphorylation of SRC/FAK substrate paxillin (phosphorylated paxillin; dose response (FIG. 11)) | IC50 (NCI-H1975 cells; [2]) | inhibition of phosphorylation of EGFR (phosphorylated EGFR) | IC50 (NCI-H1975 cells; read-out: anti-proliferation IC50 (partial))
5 | C[C@H]1CNC(=O)c2cnn3ccc(nc23)N[C@H](C)c2cc(F)ccc2O1 [Compound 1, (7S,13R)-11-fluoro-7,13-dimethyl-6,7,13,14-tetrahydro-1,15-ethenopyrazolo[4,3-f][1,4,8,10]benzoxatriazacyclotridecin-4(5H)-one] | 0% | 1% | −1% | minimum inhibition | minimum inhibition | minimum inhibition | no inhibition | significant inhibition | 4000 nM | only partial inhibition activity | significant inhibition | dose-dependently inhibited |  |  | 
